According to article PMC5093939, “Teicoplanin-based antimicrobial therapy in Staphylococcus aureus bone and joint infection: tolerance, efficacy and experience with subcutaneous administration” (BMC Infectious Diseases, 2016):
Like-named read-outs stand apart in the source and are kept apart here. Marks after values point to notes of the source that are not given here.

Experiments:
[1] = ref 12 (LeFrock et al), cited from earlier work
From the text: These current difficulties in the field of BJI explain the limited and controversial data available on the efficacy of teicoplanin in staphylococcal BJI. In past studies, treatment success rate ranged from 53 to 91 % [11–14]. The low success rate observed in our study (60 %) may be explained by several factors. First, there is a significant selection bias as patients were recruited in a reference center dedicated to manage complex BJI with a high-risk of failure. In addition, most of past studies included native BJI with a relatively short follow-up (<1 year). Finally, pharmacodynamics par ...

S. aureus isolates = assay: Susceptibility of staphylococcal isolates to teicoplanin; assay type: cell-based, Staphylococcus aureus; conditions: all S. aureus isolates of the 65 episodes (MRSA 16.9 %); exact MIC not available; breakpoints ref 23
[2] = test system: Staphylococcus aureus bone and joint infection; assay: Outcome (treatment failure) of teicoplanin-treated S. aureus bone and joint infection and its determinants; assay type: in vivo, human
From the text: BJI diagnosis was based upon the existence of clinical and biological evidences of infection, and at least one reliable bacteriological sample positive for S. aureus (i.e., percutaneous joint fluid aspiration, surgical sample, and/or blood culture). BJI were classified according to: i) the existence of orthopedic implant (i.e. joint prosthesis, peripheral or vertebral osteosynthesis); and ii) progression of infection, differentiating acute (≤3 weeks) versus chronic (>3 weeks) infection, calculated from the presumed date of inoculation (i.e., date of device implantation for postoperative orthopaedic device-related infection (ODI), or date of symptom onset for native BJI) up to diagnosis.
Treatment failure was defined as persisting infection under appropriate antimicrobial therapy, relapse after the interruption of antimicrobial therapy, necessity of surgical revision on the account of persisting septic focus ≥5 days after the first intervention, superinfections, and/or fatal outcome if BJI-related.

[3] = cited from earlier work
From the text: However, the incidence of AE was probably been underestimated due to the retrospective nature of our study (memory bias for non-severe AE). Indeed, in the prospective study of LeFrock et al, the rate of AE was 35 %, requiring discontinuation of treatment in 17 % of the cases. […] The retrospective design may result in underestimating non-serious AE such as injection site reactions.

[4] = Teicoplanin-related adverse events (CTCAE) and their determinants; design: species or system human; conditions: in vivo
From the text: Teicoplanin-related adverse events (AE) occurring during follow-up were notified and classified according to the Common Terminology Criteria for Adverse Events (CTCAE, National Cancer Institute, 2003). Teicoplanin accountability in the AE occurrence was left to the clinician appreciation, with the help of a pharmacovigilance specialist in doubtful cases.

[5] = in vivo
From the text: Patients diagnosed with staphylococcal BJI were identified by cross-referencing the prospective maintained databases of the regional referral center for BJI and the bacteriology laboratory, which list exhaustively all strains isolated from osteoarticular samples since 2001. Patients with diabetic foot- and decubitus ulcer-related BJI were excluded, as they require a specific management. If patients presented more than one osteoarticular infected site, they were considered as independent events for cohort description and outcome analysis, but pooled for tolerance and pharmacologic evaluation. For each patient, data were collected from medical records, nursing charts and biological software in an anonymous standardized case report form.
A Cmin >15 mg/L was taken as an acceptable therapeutic target. Patients with a Cmin >25 mg/L were considered as overexposure.
For intravenous (IV) administration, each dose was diluted in 100 mL of isotonic saline solution and administrated over a 30-min period. For subcutaneous (SC) injections, each dose was diluted in 50 mL of isotonic saline solution and delivered by a nurse during a 30- to 60-min gravity infusion using a butterfly disposable needle.
Descriptive statistics were used to estimate the frequencies of the study variables, described as percentages (%) for dichotomous variables, and medians (interquartile range (IQR)) for continuous variables. For the percentage calculation of each variable, the number of missing values was excluded from the denominator. Non-parametric statistical methods were used to compare the study groups (Chi-squared test, Fisher exact test and Mann–Whitney U test), as appropriate. […] Clinically pertinent variables with a p-value <0.15 in the univariate analysis were included in the final multivariate models. A value of p <0.05 was considered as significant. All analyses were performed using SPSS software version 19.0 (SPSS, Chicago, IL).

teicoplanin
Cmin ([1]; average after 6 days, 6 mg/kg/day after 5 loading doses of 6 mg/kg/12 h): 10000 ng/mL | Cmin ([1]; average from the third day, 12 mg/kg/day after 5 loading doses of 12 mg/kg/12 h): 20000 ng/mL | Susceptibility of staphylococcal isolates (S. aureus isolates): susceptible | Influence of administration route on outcome ([2]; IV versus SC, treatment failure analysis): did not influence the outcome | Limb amputations ([2]; among iterative surgical procedures, 65 episodes): two | Risk of toxicity with dose increase ([3]; dose increase from 400 to 600 mg/day): not associated with an increased risk of toxicity | Severe local reaction (grade ≥3) ([3]; prospective evaluation of SC teicoplanin in 30 patients, ref 29 (El Samad et al)): no severe local reaction | Number of cutaneous rashes [4]: 5 | Number of episodes of headache [4]: 1 | Number of pancytopenia [4]: one | OR (95%CI) of teicoplanin-related adverse event: administration route switch [4]: 0.221 (0.023-2.124) | OR (95%CI) of teicoplanin-related adverse event: delay for Cmin >15 mg/L (days) [4]: 1.019 (0.769-1.351) | OR (95%CI) of teicoplanin-related adverse event: initial Cmin (day 3 to 5, mg/L) [4]: 0.818 (0.656-1.020) | OR (95%CI) of teicoplanin-related adverse event: initial Cmin <15 mg/L [4]: 2.037 (0.213-19.494) | OR (95%CI) of teicoplanin-related adverse event: loading dose (mg/kg/12h) [4]: 1.850 (0.001-4228.586)^b | OR (95%CI) of teicoplanin-related adverse event: loading dose given [4]: 0.889 (0.091-8.646) | OR (95%CI) of teicoplanin-related adverse event: maintenance dose (mg/kg/24h) [4]: 5.150 (0.004-6359.356)^b | OR (95%CI) of teicoplanin-related adverse event: number of loading injections [4]: 0.870 (0.559-1.354) | Resolution of AE [4]: Yes | OR (95%CI) of teicoplanin-related adverse event: IV route ([4]; iv): 0.571 (0.093-3.508) | Teicoplanin-related AE ([4]; iv): 4 (8.7 %) | Teicoplanin-related AE ([4]; sc): 2 (14.3 %) | Patients obtaining Cmin >15 mg/L within the first 2 weeks of treatment [5]: 66.1% | Subcutaneous versus intravenous route: pharmacokinetics and tolerance [5]: no difference | Delay for Cmin >15 mg/L ([5]; iv): 9 (6–13) days | Initial Cmin <15 mg/L ([5]; iv): 29 (74.4 %) | Initial Cmin >25 mg/L ([5]; iv): 0 (0 %) | Overdose (day 1 to 14), Cmin >25 mg/L ([5]; iv): 8 (16.0 %) | Delay for Cmin >15 mg/L ([5]; sc): 7 (4.5–9.5) days | Initial Cmin <15 mg/L ([5]; sc): 7 (70.0 %) | Initial Cmin >25 mg/L ([5]; sc): 0 (0 %) | Overdose (day 1 to 14), Cmin >25 mg/L ([5]; sc): 2 (14.3 %)
